17 compounds from ChEMBL document CHEMBL5137028, “Progress and Challenges in Targeting the SARS-CoV-2 Papain-like Protease” (J Med Chem, 2022) can be followed below.

Structures are written as SMILES.

The test system of series [1] is SARS-CoV-2. In words: Antiviral activity against SARS-CoV-2 infected in African green monkey Vero cells assessed as viral growth inhibition measured after 72 hrs by LDH assay. The settings on record: Severe acute respiratory syndrome coronavirus 2, Vero. The series is classed as functional, organism-based.
Series [2] relates to SARS-CoV-2. In words: Antiviral activity against SARS-CoV-2 infected in African green monkey Vero cells assessed as viral growth inhibition by cell culture based assay. The class given is functional, organism-based. To be noted: Severe acute respiratory syndrome coronavirus 2, Vero.
Series [3] can be described thus: Cytotoxicity against African green monkey Vero E6 cells assessed as cell viability treated for 24 to 48 hrs by prestoblue staining based assay. The class given is toxicity, Vero C1008. To be noted: chlorocebus sabaeus, time 24-48 hrs.
In series [4] the target is Replicase polyprotein 1ab (Severe acute respiratory syndrome coronavirus 2) (UniProt P0DTD1). In words: Inhibition of SARS-CoV-2 papain-like protease nsp3 (745 to 1061 residues) expressed in Escherichia coli.
The subject of series [5] is SARS-CoV-2. The experiment in a line: Antiviral activity against SARS-CoV-2 infected in human HeLa cells expressing hACE2 assessed as inhibition of viral replication at MOI of 0.3 treated for 46 hrs by fluorescence microscopy. To be noted: Severe acute respiratory syndrome coronavirus 2, HeLa. The series is classed as functional, organism-based.
A further series has as its system HeLa. In words: Cytotoxicity against human HeLa cells expressing hACE2 assessed as cell viability treated for 72 hrs by Cell Titer Glo assay. The class given is functional.
Series [6] relates to SARS-CoV-2. In words: Antiviral activity against SARS-CoV-2 USA-WA1/2020 isolate infected in human Caco2 expressing hACE2 cells assessed as viral growth inhibition at MOI of 0.1 treated for 24 hrs by fluorescence microscopy. The series is classed as functional, organism-based. To be noted: Severe acute respiratory syndrome coronavirus 2, USA-WA1/2020 isolate, Caco-2, 24 h.
Series [7] is described as follows: Selectivity index, ratio of CC50 for human A549 cells expressing ACE2 to EC50 for SARS-CoV-2 infected in human A549 cells expressing ACE2. The series is classed as toxicity, cell-based. To be noted: read-out: Ratio CC50/EC50.
In series [8] the test system is SARS-CoV-2. In words: Antiviral activity against SARS-CoV-2 infected in African green monkey Vero cells assessed as viral growth inhibition. The series is classed as functional, organism-based. The settings on record: Severe acute respiratory syndrome coronavirus 2, Vero.
The next series has as its system A549. In words: Cytotoxicity against human A549 cells expressing ACE2 assessed as cell viability. The series is classed as functional.
Series [9] is described as follows: Cytotoxicity against African green monkey Vero cells assessed as cell viability. To be noted: chlorocebus sabaeus. The class given is toxicity, cell-based.
The nature of series [10]: Selectivity index, ratio of CC50 for African green monkey Vero cells to EC50 for SARS-CoV-2 infected in African green monkey Vero cells. The series is classed as toxicity. To be noted: read-out: Ratio CC50/EC50.
Series [11] relates to SARS-CoV-2. In words: Antiviral activity against SARS-CoV-2 infected in human A549 cells expressing ACE2 assessed as viral growth inhibition. The series is classed as functional, organism-based. To be noted: Severe acute respiratory syndrome coronavirus 2, A549.
Series [12] is described as follows: Antiviral activity against HCoV-OC43 assessed as viral growth inhibition. The class given is functional, Human coronavirus OC43.
In series [13] the test system is Middle East respiratory syndrome-related coronavirus. The experiment in a line: Antiviral activity against MERS-CoV assessed as viral growth inhibition. The series is classed as functional, organism-based.
The subject of series [14] is SARS-CoV-2. In words: Antiviral activity against SARS-CoV-2 USA-WA1/2020 infected in African green monkey Vero E6 cells assessed as viral growth inhibition pretreated for 1 hr followed by infection at MOI of 0.1 measured after 48 hrs by Cell Titer Glo assay. To be noted: Severe acute respiratory syndrome coronavirus 2, USA-WA1/2020, Vero C1008. The class given is functional, organism-based.

The nature of series [15]: Cytotoxicity against African green monkey Vero E6 cells assessed as cell viability treated for 24 hrs by CCK8 assay. To be noted: chlorocebus sabaeus. The series is classed as toxicity, cell-based, Vero C1008.
The nature of series [16]: Cytotoxicity against African green monkey Vero E6 cells assessed as cell viability. To be noted: chlorocebus sabaeus. The series is classed as toxicity, cell-based, Vero C1008.
For series [17], the system named is SARS-CoV-2. In words: Antiviral activity against SARS-CoV-2 infected in African green monkey Vero cells assessed as viral growth inhibition incubated for 1 hr by crystal violet staining based plaque reduction assay. The series is classed as functional, organism-based. To be noted: Severe acute respiratory syndrome coronavirus 2, Vero.
A short description of series [18]: Stability in human liver microsome assessed as half life. The settings on record: liver microsomes. The class given is ADME.
A short description of series [19]: Stability in human liver S9 fraction assessed as half life. The series is classed as ADME, subcellular.

For the compound `COc1cc(CNC(=O)C2CCN(C(C)c3cccc4ccccc34)CC2)ccn1` (stereo not drawn), the 50% effective concentration (EC50) in the series with SARS-CoV-2 [1] is under 11 µM.

`Cc1cccc2c3c(ccc12)C1=C(C(=O)C3=O)[C@@H](C)CO1` [DIHYDROTANSHINONE I]: in the series on SARS-CoV-2 [2], the EC50 is 8.15 µM.

As to `O=C1c2c(O)cccc2[C@@H]([C@@H]2O[C@H](CO)[C@@H](O)[C@H](O)[C@H]2O)c2cc(CO)cc(O)c21`, in series [3], the CC50 was over 100 µM. Consider `COC(=O)/C=C/CNC(=O)CNC(=O)[C@H](CN)NC(=O)[C@H](CCc1ccc(O)cc1)NC(C)=O`, for which the INH in [4] turned out to be 100 µM. On to `O=C1c2c(O)cccc2[C@H]([C@@H]2O[C@H](CO)[C@@H](O)[C@H](O)[C@H]2O)c2cc(CO)cc(O)c21`, for which the CC50 in series [3] is over 100 µM. In the case of `C[C@H](c1cccc2ccccc12)N1CCC(C(=O)NCc2cc(F)cc(NC(=O)N3CCN(C)CC3)c2)CC1`, the concentration for a half-maximal effect (EC50) in the series with SARS-CoV-2 [5] is 0.18 µM. Further, the half-maximal cytotoxic concentration (CC50) in the series on HeLa is over 10 µM. Turning to `C[C@H](c1cccc2ccccc12)N(C)Cc1c[nH]c2ccccc12`, in the series with SARS-CoV-2 [6], the EC50 was 12 µM. Regarding `Nc1ccc2cc3ccc(N)cc3nc2c1` [PROFLAVINE], the figures for the selectivity ratio in series [7] and in series [10] were 36 and 53, respectively. The EC50 in the series on SARS-CoV-2 [8] is 0.064 µM; in the series with SARS-CoV-2 [11], 0.086 µM. The CC50 in the series on A549 worked out at 3.1 µM; in series [9], 3.4 µM. Besides, the IC50 turned out to be 0.105 µM in series [12] and 0.021 µM in series [13]. For `C[C@@H](NC(=O)c1ccccc1CCC(=O)NNC(=O)CCl)c1cccc2ccccc12`, in the series on SARS-CoV-2 [14], the EC50 stood at 34 µM. With `C[C@H]1COC2=C1C(=O)C(=O)c1c2ccc2c1CCCC2(C)C` [CRYPTOTANSHINONE], in the series with SARS-CoV-2 [2], the EC50 is over 200 µM. The CC50 at 24 h in [15] was over 300 µM. For the compound `COC(=O)/C=C/CNC(=O)CNC(=O)[C@H](CN)NC(=O)[C@H](CCc1nc2ccccc2s1)NC(C)=O`, in [4], the INH stood at 100 µM. For the compound `Cc1cc2nc3c(=O)[nH]c(=O)nc-3n(C)c2cc1C=O`, the EC50 in the series with SARS-CoV-2 [2] stood at 20 µM.

On to `Cc1coc2c1C(=O)C(=O)c1c-2ccc2c(C)cccc12` [TANSHINONE I], for which the CC50 at 24 h in series [15] was over 200 µM. Regarding `Nc1nc2nc[nH]c2c(=S)[nH]1` [THIOGUANINE], the CC50 in series [16] worked out at 35.5 µM. Regarding `Cc1coc2c1C(=O)C(=O)c1c-2ccc2c1CCCC2(C)C` [TANSHINONE IIA], the EC50 with SARS-CoV-2 [2] is over 200 µM. `Cc1ccc(N)cc1C(=O)N[C@H](C)c1cccc2ccccc12`: the EC50 in the series with SARS-CoV-2 [2] came to 32.6 µM; in the series with SARS-CoV-2 [17] it was 3.18 µM.

Regarding `COC(=O)/C=C/C(=O)NNC(=O)CCc1ccccc1C(=O)N[C@H](C)c1cccc2ccccc12`, the half-life in series [18] turned out to be 50 min; in [19] it was 60 min.
